# Measured values: US8822509B2, “Pain-relieving compositions and uses therefor” (priority 2006, dated 2014)
# How the values were obtained:
# [1] = test system: tactile (mechanical) allodynia in hindpaws of STZ-diabetic rats; assay: Anti-allodynia by von Frey paw withdrawal thresholds (PWT) in STZ-diabetic rats; type: in vivo, Wistar rats
# Procedure: Following this, the jugular cannula was withdrawn, the vein tied off, and the incision sutured. Following surgery, rats received antibiotic prophylaxis in the form of topical dusting powder over the sutured incisions, as well as a subcutaneous injection of benzylpenicillin (60 mg). Rats were placed in individual cages, kept warm and monitored closely during the surgical recovery period. Rats were classified as diabetic if on day 10 post-STZ administration, their daily water intake was ≧100 mL and their corresponding blood glucose levels (BGLs) were ≧15 mM.
# Calibrated von Frey filaments were used to document the time course for the development and maintenance of tactile allodynia (defining symptom of PDN).
# (§1) Briefly, baseline PWTs were determined for both hindpaws prior to each antinociceptive testing session in the non-diabetic control group at week 0 as well as in groups of STZ-diabetic rats at 10, 14 and 24 wks.
# (§2) The PWT vs time data were normalized by subtracting the pre-dosing baseline PWT values for each individual rat to obtain ΔPWT values as follows: Normalized (Δ)PWT value=Post-treatment PWT value−PWT value prior to treatment.
# (§3) ΔPWT versus time curves were then constructed. Trapezoidal integration was used to estimate ΔPWT AUC values for individual rats in the non-diabetic and STZ-diabetic rat treatment groups. ΔPWT AUC versus dose curves were constructed and GraphPad™ Prism was used to estimate the ˜ED50 values.
# [2] = test system: hindpaws of control non-diabetic rats; assay: Antinociception by von Frey PWT in control non-diabetic rats; type: in vivo, Wistar rats; conditions: single s.c. bolus; morphine 1.8-21.4 μmol/kg, Compound 1 2-20 fmol/kg
# Procedure: as §1, §2, §3
# STZ-diabetic rats [3] = assay: Behavioural side-effects in STZ-diabetic rats; type: in vivo; conditions: Compound 1 800 pmol/kg s.c.; morphine 21 μmol/kg
# [4] = test system: non-diabetic control rats; assay: Tolerance development (7-day continuous s.c. infusion, 2-day washout) in non-diabetic control rats, von Frey PWT; type: in vivo
# STZ-diabetic rats [5] = assay: Tolerance development (7-day s.c. infusion, 2-day washout) in STZ-diabetic rats, von Frey PWT; type: in vivo
# [6] = week 10 post-STZ, morphine 2.8 μmol/kg s.c.
# [7] = drug-naïve non-diabetic rats, Compound 1 8 fmol/kg, morphine 2.8 mmol/kg (so in the source) s.c. bolus
# [8] = non-diabetic rats, second s.c. bolus after 7-day infusion and 2-day washout
smiles,measurement,setting,value
"CN1CC[C@]23c4c5ccc(O)c4O[C@H]2[C@@H](O)C=C[C@H]3[C@H]1C5 [morphine, reference compound]",time of peak effect post-dosing,[1]; morphine 1.8-21.4 μmol/kg s.c. (FIG. 2),30 to 60 min
same,anti-allodynia in the hindpaws of STZ-diabetic rats,"[1]; single s.c. bolus at 10, 14, 24 wks post-STZ",dose-dependent anti-allodynia
same,mean (±SEM) PWT at time of peak response,[1]; [6],10.7 ± 0.6 g
same,reversal of mechanical allodynia at time of peak response,[1]; [6],fully reversed mechanical allodynia
same,anti-allodynic potency,"[1]; week 14 post-STZ, morphine 2.8 μmol/kg s.c.",significantly reduced
same,relief of mechanical allodynia at time of peak response,"[1]; week 14 post-STZ, morphine 10.5 μmol/kg s.c.",completely relieved mechanical allodynia
same,anti-allodynic potency,"[1]; week 24 post-STZ, morphine 10.5 and 21.4 μmol/kg s.c.",markedly reduced
same,antinociception in the hindpaws of control non-diabetic rats,[2],dose-dependent antinociception
same,behavioural side-effects at highest dose,STZ-diabetic rats [3],staring and sedation
same,time of peak antinociception post-dosing,"[4]; drug-naïve non-diabetic rats, first s.c. bolus",1 h
same,mean (±SEM) peak PWT,[4]; [7],16.0 (±0.4) g
same,mean (±SEM) peak ΔPWT,[4]; [7],4.4 (±0.4) g
same,tolerance after 7-day continuous s.c. infusion,[4]; non-diabetic rats,antinociceptive tolerance developed
same,"antinociception after second bolus, naïve vs ""tolerant"" rats","[4]; non-diabetic rats, after 2-day washout",tolerant to the antinociceptive effects of morphine
same,mean (±SEM) peak PWT,[4]; [8],12 (±0.3) g
same,mean (±SEM) peak ΔPWT,[4]; [8],0.5 (±0.3) g
same,tolerance after 7-day s.c. infusion,STZ-diabetic rats [5]; STZ-diabetic rats,antinociceptive tolerance developed
same,anti-allodynia after second bolus (tolerance status),"STZ-diabetic rats [5]; STZ-diabetic rats, after 2-day washout, morphine 10.5 μmol/kg, Compound 1 800 pmol/kg",insignificant anti-allodynia
same,time of peak anti-allodynia post-dosing,"STZ-diabetic rats [5]; naïve STZ-diabetic rats, first s.c. bolus",1 h
same,mean (±SEM) peak PWT,"STZ-diabetic rats [5]; naïve STZ-diabetic rats, Compound 1 800 pmol/kg, morphine 10.4 μmol/kg s.c. bolus",10.7 (±0.3) g
